Measured values: patent US20070202574A1, “Novel Saccharothrix Strain an Antibiotics Derived Therefrom, i.e. Mutactimycins and Aldgamycins” (Institut National Polytechnique de Toulouse, priority 2004, published 2007)
≈ marks a conversion by molar mass, not a printed value. Where “and” joins values, the source holds several entries; their conditions need not be identical. Equal entries are not always repeated. Entries after “also recorded” stand apart in the source; their conditions may differ.

Assays:
[1] = test system: Bacillus subtilis ATCC 6633; experiment: MIC, antimicrobial spectrum; type: cell-based; conditions: for MIC: ATCC6633, Bacillus subtilis ATCC 6633
[2] = test system: Micrococcus luteus ATCC 9314; experiment: MIC, antimicrobial spectrum; type: cell-based; conditions: for MIC: ATCC9314, Micrococcus luteus ATCC 9314; for activity in words: M. luteus
[3] = test system: Staphylococcus aureus CIP 7625; experiment: MIC, antimicrobial spectrum; type: cell-based; conditions: CIP7625
[4] = test system: Staphylococcus aureus CIP 53156; experiment: MIC, antimicrobial spectrum; type: cell-based; conditions: for MIC: Staphylococcus aureus, CIP53156, Staphylococcus aureus CIP 53156; for activity in words: Staphylococcus aureus CIP 53156
[5] = test system: Listeria monocytogenes CIP 82110; experiment: MIC, antimicrobial spectrum; type: cell-based; conditions: CIP82110, Listeria monocytogenes CIP 82110
[6] = test system: Mycobacterium smegmatis ATCC 607; experiment: MIC, antimicrobial spectrum; type: cell-based; conditions: for MIC: Mycolicibacterium smegmatis, ATCC607, Mycobacterium smegmatis ATCC 607; for activity in words: Mycobacterium smegmatis
[7] = test system: Klebsiella pneumoniae CIP 82.91; experiment: MIC, antimicrobial spectrum; type: cell-based; conditions: for MIC: Klebsiella pneumoniae, CIP82, Klebsiella pneumoniae CIP 82.91; for activity in words: K. pneumoniae
[8] = test system: Escherichia coli ATCC 10536; experiment: MIC, antimicrobial spectrum; type: cell-based; conditions: ATCC10536
[9] = test system: Pseudomonas syringae No 1882; experiment: MIC, antimicrobial spectrum; type: cell-based; conditions: NO1882
[10] = test system: Agrobacterium tumefaciens No 2410; experiment: MIC, antimicrobial spectrum; type: cell-based; conditions: NO2410
[11] = test system: Mucor ramannianus NRRL 1829; experiment: MIC, antimicrobial spectrum; type: cell-based; conditions: Umbelopsis ramanniana, NRRL1829
[12] = test system: Saccharomyces cerevisiae ATCC 4226; experiment: MIC, antimicrobial spectrum; type: cell-based; conditions: ATCC4226
Bacillus subtilis = experiment: HPLC fractions tested against Bacillus subtilis (gelose diffusion test); type: cell-based; conditions: concentrated HPLC peak fractions
Experimental: A sample of the strain SA 103 taken from an immature inclined culture was inoculated into an Erlenmeyer flask containing 50 ml of the sterile culture medium containing 0.4t glucose, a 1% malt extract and a 0.4% yeast extract (adjusted to pH 7.2 before sterilisation) and placed in culture on a rotary stirrer (250 rpm) at 30° C. for two days. For producing antibiotics, 3 ml of culture medium were transferred to 500 ml Erlenmeyer flasks, each containing 100 ml of the above medium, and placed in culture for 10 days using the same conditions. The production of total antibacterial activity was carried out on a nutrient gelose, by a gelose diffusion test against Bacillus sutilis ATCC 6633. Inhibition of growth was examined after 24 hours of incubation at 30° C. Antimicrobial activity was estimated by measuring the diameter of the inhibition zone. The dry weight of the mycelium was determined in Eppendorf tubes filled with 1 ml of homogenized culture medium and dried at 105° C. for 24 hours (Pfefferle et al. J. Biotech. 80:135-142, 2000).
The butanolic extract, of a red colour, was concentrated on the Rotavapor. An aliquot of this extract was first sent through a Sephadex LH 20 column using methanol in double distilled water (80%) as the mobile phase. However, the separation of the antibiotics (visualisation by the naked eye and by the antibiography) was not conclusive. This step was therefore eliminated and the butanolic extract was purified directly by a reverse phase HPLC using a C18 column and isocratic conditions (63% methanol in water), a flow rate of 1.5 ml/min and detection at 220 nm. The fractions corresponding to all the peaks obtained on the profile were collected separately, concentrated and tested against Bacillus subtilis. […] These antibiotics were purified by HPLC after 3 to 4 reinjections in the same conditions as previously.

[13] = Relative solubility in solvents; type: physicochemical; conditions: value = list of solvents; for Relative solubility: Highly soluble (solvents) / Relative solubility: Insoluble (solvents) / Relative solubility: Medium soluble (solvents): wrapped cells given line by line
Description: The antibiotics P11, PR, F and G are bright red in colour at neutral pH, yellow at acid pH and violet-blue at basic pH. P11 is the majority antibiotic and PR, the minority antibiotic. These antibiotics were the subject of the following […] analyses: UV visible light, infrared, mass spectrometry and NMR of the proton and carbon 13 (with studies of the correlations). Supplementary tests, such a solubility, determination of Rf by CCM and elemental analysis (the latter only for P11) were also carried out.

MIC [1] [µg/mL] | MIC [2] [µg/mL] | MIC [3] [µg/mL] | MIC [4] [µg/mL] | MIC [5] [µg/mL] | MIC [6] [µg/mL] | MIC [7] [µg/mL] | MIC [8] [µg/mL] | MIC [9] [µg/mL] | MIC [10] [µg/mL] | MIC [11] [µg/mL] | MIC [12] [µg/mL] | Relative solubility: Insoluble (solvents) [13] | Relative solubility: Medium soluble (solvents) [13] | SMILES | activity of the collected HPLC fraction against Bacillus subtilis (Bacillus subtilis) | Relative solubility: Highly soluble (solvents) [13] | activity in words [1] | activity in words [2] | activity in words [4] | activity in words [6] | further results
40 (≈ 75.4 µM) | 5 (≈ 9.42 µM) | > 100 | 10 (≈ 18.8 µM) | 50 (≈ 94.2 µM) | 75 (≈ 141 µM) | 5 (≈ 9.42 µM) | > 100 | > 100 | > 100 | > 100 | > 100 | n-hexane and toluene | CH2Cl2, CHCl3, EtOAc, and 2-PrOH | COc1cccc2c1C(=O)c1c(O)c3c(c(O)c1C2=O)CC(C)(O)CC3OC1OC(C)C(O)C(OC)C1O (stereo not drawn) [P11, mutactimycin C] | active | water, methanol, n-butanol, ethanol, 1-propanol and acetone; also recorded: MeOH, Me2CO, H20, n-; also recorded: BuOH, EtOH, 1-PrOH |  |  |  |  | 
 | 1 (≈ 1.4 µM) | > 100 |  |  |  |  | > 100 | > 100 | > 100 | > 100 | > 100 |  |  | COC1C(OCC2C(C)OC(=O)/C=C/C(C)C(OC3OC(C)CC(O)(C(C)O)C3O)C(C)CC(C)C(=O)/C=C/C3OC32)OC(C)C(O)C1OC (stereo not drawn) [P8, aldgamycin H] | active | methanol, n-butanol, ethanol, 1 and 2-propnol, ethyl acetate, acetone, chloroform and dichloromethane; also recorded: MeOH, EtOR, Me2CO,; also recorded: n-BuOH, 1-PrOH, 2-; also recorded: PrOH, CH2Cl2,; also recorded: EtOAc, CHCl3 |  |  |  |  | 
1 (≈ 1.43 µM) | 1 (≈ 1.43 µM) | > 100 | 1 (≈ 1.43 µM) | 30 (≈ 42.9 µM) | 50 (≈ 71.5 µM) | 0.1 (≈ 0.143 µM) | > 100 | > 100 | > 100 | > 100 | > 100 | water and n-hexane |  | COC1C(OCC2/C=C/C=C/C(=O)C(C)CC(C)C(OC3OC(C)CC(O)(C(C)O)C3O)C(C)/C=C/C(=O)OC2C)OC(C)C(O)C1OC (stereo not drawn) [P10b, aldgamycin P10b] | active | methanol, n-butanol, ethanol, 1 and 2-propnol, ethyl acetate, acetone, chloroform and dichloromethane |  |  |  |  | 
1 (≈ 1.35 µM) | 1 (≈ 1.35 µM) |  | 1 (≈ 1.35 µM) | 30 (≈ 40.5 µM) | 50 (≈ 67.5 µM) | 0.1 (≈ 0.135 µM) |  |  |  |  |  |  |  | COC1C(OCC2C(C)OC(=O)/C=C/C(C)C(OC3OC(C)CC4(OC(=O)OC4C)C3O)C(C)CC(C)C(=O)/C=C/C3OC32)OC(C)C(O)C1OC (stereo not drawn) [P10a, aldgamycin G] | active | methanol, n-butanol, ethanol, 1 and 2-propnol, ethyl acetate, acetone, chloroform and dichloromethane; also recorded: MeOH, EtOH, Me2CO,; also recorded: n-BuOH, 1-PrOH, 2-; also recorded: PrOH, CH2Cl2,; also recorded: EtOAc, CHCl3 |  |  |  |  | soluble in (solvents) [13]: n-butanol, 1 and 2-propanol, methanol, dichloromethane, ethyl acetate, chloroform, acetone and ethanol

Further lines, the molecule ahead of its results:

SMILES | MIC [1] [µg/mL] | MIC [2] [µg/mL] | MIC [3] [µg/mL] | MIC [4] [µg/mL] | MIC [5] [µg/mL] | MIC [6] [µg/mL] | MIC [7] [µg/mL] | MIC [8] [µg/mL] | MIC [9] [µg/mL] | MIC [10] [µg/mL] | MIC [11] [µg/mL] | MIC [12] [µg/mL] | Relative solubility: Insoluble (solvents) [13] | Relative solubility: Medium soluble (solvents) [13] | activity of the collected HPLC fraction against Bacillus subtilis (Bacillus subtilis) | Relative solubility: Highly soluble (solvents) [13] | activity in words [1] | activity in words [2] | activity in words [4] | activity in words [6] | further results
COC1C(O)C(C)OC(OC2CC(C)(O)Cc3c(O)c4c(c(O)c32)C(=O)c2c(OC3OC(C)C(O)C(O)C3O)cccc2C4=O)C1O (stereo not drawn) [PR, mutactimycin PR] | 75 (≈ 113 µM) | 50 (≈ 75.5 µM) | > 100 | 50 (≈ 75.5 µM) | > 100 | > 100 | 40 (≈ 60.4 µM) | > 100 | > 100 | > 100 | > 100 | > 100 | chloroform, dichloromethane, ethyl acetate, n-hexane and toluene |  | active | water, methanol and ethanol | active | active | active | active | activity in words [7]: active; Relative solubility: Highly soluble (solvents) ([13]; listed as mutactimycin PR): MeOH, EtOH, H2O; Relative solubility: Insoluble (solvents) ([13]; listed as mutactimycin PR): CH2Cl2, CHCl3,; also recorded: EtOAc, n-hexane,; also recorded: toluene; Relative solubility: Medium soluble (solvents) ([13]; listed as mutactimycin PR): Me2CO, n-BuOH, 1-; also recorded: PrOH, 2-PrOH
COc1cccc2c1C(=O)c1c(O)c3c(c(O)c1C2=O)CC(C)(O)CC3OC1OC(C)C(O)C(O)C1O (stereo not drawn) [F, mutactimycin F] |  |  |  |  |  |  |  |  |  |  |  |  | n-hexane and toluene | MeOH, EtOH | active | n-BuOH, 1-PrOH | active | active | active | active | activity in words [7]: active; soluble in (solvents) [13]: water, n-butanol, 1-propanol and ethanol; Relative solubility: Insoluble (solvents) ([13]; listed as Mutactimycin F): H2O, CH2Cl2, CHCl3; also recorded: EtOAc, Me2CO, n-hexane,; also recorded: toluene
CC1OC(Oc2cccc3c2C(=O)c2c(O)c4c(c(O)c2C3=O)CC(C)(O)CC4O)C(O)C(O)C1O (stereo not drawn) [G, mutactimycin G] |  |  |  |  |  |  |  |  |  |  |  |  | chloroform, dichloromethane, ethyl acetate, n-hexane and toluene; also recorded: H2O, CH2Cl2, CHCl3, EtOAc,; also recorded: Me2CO, n-hexane, toluene | MeOH, EtOH | active | n-BuOH, l-PrOH | active | active | active | active | activity in words [7]: active; soluble in (solvents) [13]: water, n-butanol, 1-propanol, methanol and ethanol
